Test results: EPA's ToxValDB 9.5 (doi:10.2903/j.efsa.2020.6338)

Columns and labels:
Bovidae = details: subchronic; duration: 42 days; oral; diet; M; no effects
Gallus gallus = details: subchronic; duration: 36 days; oral; diet; M; Chicken; no effects
Sus scrofa = details: subchronic; duration: 42 days; oral; diet; M/F; Not specified; no effects

## Cc1csc(C(C)C)n1 [2-Isopropyl-4-methylthiazole]
Bovidae
  LEL: 15 mg/kg-day
Gallus gallus
  LEL: 15 mg/kg-day
Sus scrofa
  LEL: 15 mg/kg-day

## COc1ccc2ccccc2c1 [2-Methoxynaphthalene]
Bovidae
  LEL: 12 mg/kg-day
Gallus gallus
  LEL: 12 mg/kg-day
Sus scrofa
  LEL: 12 mg/kg-day

## OCCc1ccccc1 [2-Phenylethanol]
Bovidae
  LEL: 125 mg/kg-day
Gallus gallus
  LEL: 125 mg/kg-day
Sus scrofa
  LEL: 125 mg/kg-day

## CC(=O)OCCC(C)C [3-Methylbutyl acetate]
Bovidae
  LEL: 1250 mg/kg-day
Gallus gallus
  LEL: 1250 mg/kg-day
Sus scrofa
  LEL: 1250 mg/kg-day

## CCCCCCC(=O)OCC [Ethyl heptanoate]
Bovidae
  LEL: 318 mg/kg-day
Gallus gallus
  LEL: 318 mg/kg-day
Sus scrofa
  LEL: 318 mg/kg-day

## C=CC(C)(O)CCC=C(C)C (configuration not stated) [Linalool]
Bovidae
  LEL: 300 mg/kg-day
Gallus gallus
  LEL: 300 mg/kg-day
Sus scrofa
  LEL: 300 mg/kg-day

## O=C1CCCCCCCCCCCCCCO1 [Pentadecan-15-olide]
Bovidae
  LEL: 100 mg/kg-day
Gallus gallus
  LEL: 100 mg/kg-day
Sus scrofa
  LEL: 100 mg/kg-day

## CC(C)CC(=O)OCCc1ccccc1 [Phenethyl isovalerate]
Bovidae
  LEL: 300 mg/kg-day
Gallus gallus
  LEL: 300 mg/kg-day
Sus scrofa
  LEL: 300 mg/kg-day

## CC1CCC(C(C)(C)S)C(=O)C1 (configuration not stated) [p-Mentha-8-thiol-3-one]
Bovidae
  LEL: 5 mg/kg-day
Gallus gallus
  LEL: 5 mg/kg-day
Sus scrofa
  LEL: 5 mg/kg-day
